# From patent publication US10150743B2, “Carboxylic acid compounds” (priority 2012, dated 2018)
# Columns and labels:
# hERG potassium channel = hERG potassium channel (Homo sapiens (Human), UniProt Q12809); assay: hERG Analysis - Method 2 (QPATCH HT, CHO-hERG cells); assay type: cell-based; conditions: half-maximal inhibition concentration, 22±2° C.
# Experimental: The hERG potassium current was measured in a hERG-stably-expressing Chinese hamster ovary K1 (CHO) cells. The experiments were performed using an automated planar patch-clamp system QPATCH HT (Sophion Bioscience A/S). The application of pressure for forming gigaseals and whole-cell patch clamp configuration were established using the QPATCH assay software. Patch-clamp experiments were performed in voltage-clamp mode and whole-cell currents were recorded from individual cells. The following stimulation protocol was applied to investigate the effects of compounds on hERG potassium channel: The membrane potential was held at −80 mV and repetitively (every 15 s) depolarized to +20 mV for 5 s after the pulse to −50 mV for 20 ms served to define the baseline, followed by repolarizing step to −50 mV for 5 s to evaluate of the tail current amplitude. Experiments were conducted at room temperature (22±2° C.).
# Effects of compounds were determined from cumulative applications of increasing 4 concentrations and calculated as percent of blocked current. The data points were fitted with Hill equation to calculate half-maximal inhibition concentrations. The test solution includes: Extracellular solution (mM): 2 mM of CaCl2, 1 mM of MgCl2, 10 mM of HEPES, 4 mM of KCl, 145 mM of NaCl, and 10 mM of Glucose; and Intracellular solution (mM): 5.4 mM of CaCl2, 1.8 mM of MgCl2, 10 mM of HEPES, 31 mM of KOH, 10 mM of EGTA, 120 mM of KCl, and 4 mM of ATP.
# human TLR7 = human TLR7 (Homo sapiens (Human), UniProt Q9NYK1); assay: Human TLR7 assay (SEAP reporter in HEK293); assay type: cell-based; conditions: SEAP induction, overnight incubation at 37° C., 0.1% DMSO; read-out: TLR7 (pEC50) (converted)
# Source text: Recombinant human TLR7 was stably expressed in a HEK293 cell line already stably expressing the pNiFty2-SEAP reporter plasmid; integration of the reporter gene was maintained by selection with the antibiotic zeocin. The most common variant sequence of human TLR7 (represented by the EMBL sequence AF240467) was cloned into the mammalian cell expression vector pUNO and transfected into this reporter cell-line. Transfectants with stable expression were selected using the antibiotic blasticidin. In this reporter cell-line, expression of secreted alkaline phosphatase (SEAP) is controlled by an NFkB/ELAM-1 composite promoter comprising five NFkB sites combined with the proximal ELAM-1 promoter. TLR signaling leads to the translocation of NFkB and activation of the promoter results in expression of the SEAP gene. TLR7-specific activation was assessed by determining the level of SEAP produced following overnight incubation of the cells at 37° C. with the standard compound in the presence of 0.1% (v/v) dimethylsulfoxide (DMSO). Concentration dependent induction of SEAP production by compounds was expressed as the concentration of compound which produced half of the maximal level of SEAP induction for that compound (EC50).
# human TLR8 = human TLR8 (Homo sapiens (Human), UniProt Q9NR97); assay: Human TLR8 assay (TLR8/NF-kB/SEAPorter HEK 293 Cell Line); assay type: cell-based; conditions: SEAP induction, overnight incubation at 37° C., 0.1% DMSO; read-out: TLR8 pEC50 (converted)
# Source text: TLR8/NF-kB/SEAPorter™ HEK 293 Cell Line (Imgenex Corporation) is a stably co-transfected cell line which expresses full-length human TLR8 and the secreted alkaline phosphatase (SEAP) reporter gene under the transcriptional control of an NF-κB response element. TLR8 expression in this cell line has been tested by flow cytometry. Transfectants with stable expression were selected using the antibiotic blasticidin and geneticin. TLR signaling leads to the translocation of NF-κB and activation of the promoter results in expression of the SEAP gene. TLR8-specific activation was assessed by determining the level of SEAP produced following overnight incubation of the cells at 37° C. with the standard compound in the presence of 0.1% (v/v) dimethylsulfoxide (DMSO). Concentration dependent induction of SEAP production by compounds was expressed as the concentration of compound which produced half of the maximal level of SEAP induction for that compound (EC50).
# Renca mouse tumour cells = assay: Tumour growth studies in Renca, a murine syngeneic renal carcinoma tumour model; assay type: in vivo; conditions: Balb/C mice, 3 mg/kg once a week p.o. on days 1, 8, 15; vs 0.5% methylcellulose; FIG. 10
# Experimental: Experiments were conducted on female mice (Balb/C genotype, at least 5 weeks old). Renca mouse tumour cells (Cancer Chemother Pharmacol. 1995; 36 (1): 7-12) were kindly provided by Dr. T. Fujioka at Department of Urology, Iwate Medical University School of Medicine. Renca mouse tumour cells (5×10^4) were implanted subcutaneously in the flank of mice on day 0. Mice were treated with either drug vehicle (0.5% methylcellulose), the compound of Example 3 (0.3 mg/kg once a week) or the compound of Example 4 (3 mg/kg once a week) administered orally (p. o.) on days 1, 8, and 15. Tumour volumes were assessed at least twice weekly by bilateral vernier caliper measurements.
# Tumour growth inhibition from the start of treatment was assessed by comparison of the differences in tumour growth rate between control and the compound of Example 3 treated groups, as shown in FIG. 9.
# Tumour growth inhibition from the start of treatment was assessed by comparison of the differences in tumour growth rate between control and the compound of the Example 4 treated groups, as shown in FIG. 10.
# CT26 mouse tumour cells = assay: Survival studies in CT26, a murine syngeneic colon carcinoma tumour model; assay type: in vivo; conditions: Balb/C mice; RT 2Gy x5 plus 5 mg/kg once a week i.v.; vs control or RT; FIG. 13
# Experimental: Experiments were conducted on female mice (Balb/C genotype, at least 5 weeks old). CT26 mouse tumour cells (CRL-2638) were purchased from ATCC. CT26 mouse tumour cells (1×10^6) were implanted subcutaneously in the flank of mice on day 0. Mice in radiotherapy alone (RT) group and combination group were anesthetized and received radiation therapy (2Gy) at days 7, 8, 9, 10, and 11. Mice in combination group were also treated with a compound of Example 3 (30 mg/kg once a week) administered orally (p.o.) or Example 4 (5 mg/kg once a week) administered intravenously (i. v.) on days 7, 14, 22, and 27. Tumour volumes were assessed at least twice weekly by bilateral vernier caliper measurements. Survival period was determined by the time taken for tumours to reach 4 times the volume at the time of treatment.
# Chain of human TLR8 (Q9NR97 27-1041): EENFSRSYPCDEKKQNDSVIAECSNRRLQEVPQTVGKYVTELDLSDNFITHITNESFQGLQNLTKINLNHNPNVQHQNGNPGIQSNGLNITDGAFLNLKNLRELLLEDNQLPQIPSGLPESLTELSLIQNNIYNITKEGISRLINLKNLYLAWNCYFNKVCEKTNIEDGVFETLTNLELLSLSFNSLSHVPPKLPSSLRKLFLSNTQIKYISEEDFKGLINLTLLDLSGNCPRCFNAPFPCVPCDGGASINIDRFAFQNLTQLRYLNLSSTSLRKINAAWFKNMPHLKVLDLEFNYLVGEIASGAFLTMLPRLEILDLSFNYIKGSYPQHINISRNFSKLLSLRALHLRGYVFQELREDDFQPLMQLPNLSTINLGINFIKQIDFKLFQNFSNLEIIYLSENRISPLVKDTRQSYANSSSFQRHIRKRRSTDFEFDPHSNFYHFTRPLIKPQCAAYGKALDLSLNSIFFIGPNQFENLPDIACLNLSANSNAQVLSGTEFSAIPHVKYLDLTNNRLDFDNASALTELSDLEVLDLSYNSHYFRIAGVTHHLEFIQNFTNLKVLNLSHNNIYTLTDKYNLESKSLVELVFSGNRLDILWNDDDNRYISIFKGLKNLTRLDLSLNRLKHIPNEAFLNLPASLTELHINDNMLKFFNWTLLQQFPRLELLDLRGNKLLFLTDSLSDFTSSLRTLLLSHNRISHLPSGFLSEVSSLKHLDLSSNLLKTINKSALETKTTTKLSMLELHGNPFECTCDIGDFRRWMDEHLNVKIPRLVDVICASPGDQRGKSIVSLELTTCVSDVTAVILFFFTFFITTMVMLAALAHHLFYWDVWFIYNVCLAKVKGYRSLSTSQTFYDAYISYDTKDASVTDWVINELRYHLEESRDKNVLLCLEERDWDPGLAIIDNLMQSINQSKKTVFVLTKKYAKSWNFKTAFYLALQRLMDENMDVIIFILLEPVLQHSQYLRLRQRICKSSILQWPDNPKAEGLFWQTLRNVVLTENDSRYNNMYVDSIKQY
# Chain of hERG potassium channel (Q12809 whole entry): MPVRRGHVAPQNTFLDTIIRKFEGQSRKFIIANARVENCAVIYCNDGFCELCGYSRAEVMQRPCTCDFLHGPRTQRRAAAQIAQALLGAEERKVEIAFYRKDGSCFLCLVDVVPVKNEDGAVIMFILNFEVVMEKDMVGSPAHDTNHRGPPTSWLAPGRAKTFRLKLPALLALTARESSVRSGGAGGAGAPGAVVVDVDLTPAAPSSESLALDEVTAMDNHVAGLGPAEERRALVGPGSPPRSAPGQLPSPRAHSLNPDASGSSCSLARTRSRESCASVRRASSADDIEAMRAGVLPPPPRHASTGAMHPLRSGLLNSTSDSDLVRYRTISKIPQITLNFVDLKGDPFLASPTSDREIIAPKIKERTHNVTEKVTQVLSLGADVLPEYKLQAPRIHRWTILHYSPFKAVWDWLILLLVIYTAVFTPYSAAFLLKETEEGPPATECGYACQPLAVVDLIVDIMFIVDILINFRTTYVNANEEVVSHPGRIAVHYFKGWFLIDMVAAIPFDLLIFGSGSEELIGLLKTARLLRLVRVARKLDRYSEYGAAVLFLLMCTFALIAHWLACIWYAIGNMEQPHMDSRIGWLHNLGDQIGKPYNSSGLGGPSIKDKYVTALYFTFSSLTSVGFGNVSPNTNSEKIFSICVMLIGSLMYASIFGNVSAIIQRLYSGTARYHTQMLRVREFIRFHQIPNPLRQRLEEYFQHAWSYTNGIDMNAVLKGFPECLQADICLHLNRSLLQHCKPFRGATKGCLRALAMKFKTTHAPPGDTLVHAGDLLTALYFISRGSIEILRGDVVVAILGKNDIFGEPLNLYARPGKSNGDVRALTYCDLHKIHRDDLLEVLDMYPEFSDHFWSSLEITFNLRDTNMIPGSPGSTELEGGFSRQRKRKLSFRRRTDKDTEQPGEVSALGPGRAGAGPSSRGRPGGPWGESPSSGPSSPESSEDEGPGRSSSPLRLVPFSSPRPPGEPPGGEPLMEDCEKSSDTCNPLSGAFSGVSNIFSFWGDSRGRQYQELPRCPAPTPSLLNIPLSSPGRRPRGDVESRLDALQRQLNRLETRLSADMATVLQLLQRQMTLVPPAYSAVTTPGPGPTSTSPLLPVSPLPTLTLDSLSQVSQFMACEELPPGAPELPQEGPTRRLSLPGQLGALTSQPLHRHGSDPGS
# Chain of human TLR7 (Q9NYK1 27-1049): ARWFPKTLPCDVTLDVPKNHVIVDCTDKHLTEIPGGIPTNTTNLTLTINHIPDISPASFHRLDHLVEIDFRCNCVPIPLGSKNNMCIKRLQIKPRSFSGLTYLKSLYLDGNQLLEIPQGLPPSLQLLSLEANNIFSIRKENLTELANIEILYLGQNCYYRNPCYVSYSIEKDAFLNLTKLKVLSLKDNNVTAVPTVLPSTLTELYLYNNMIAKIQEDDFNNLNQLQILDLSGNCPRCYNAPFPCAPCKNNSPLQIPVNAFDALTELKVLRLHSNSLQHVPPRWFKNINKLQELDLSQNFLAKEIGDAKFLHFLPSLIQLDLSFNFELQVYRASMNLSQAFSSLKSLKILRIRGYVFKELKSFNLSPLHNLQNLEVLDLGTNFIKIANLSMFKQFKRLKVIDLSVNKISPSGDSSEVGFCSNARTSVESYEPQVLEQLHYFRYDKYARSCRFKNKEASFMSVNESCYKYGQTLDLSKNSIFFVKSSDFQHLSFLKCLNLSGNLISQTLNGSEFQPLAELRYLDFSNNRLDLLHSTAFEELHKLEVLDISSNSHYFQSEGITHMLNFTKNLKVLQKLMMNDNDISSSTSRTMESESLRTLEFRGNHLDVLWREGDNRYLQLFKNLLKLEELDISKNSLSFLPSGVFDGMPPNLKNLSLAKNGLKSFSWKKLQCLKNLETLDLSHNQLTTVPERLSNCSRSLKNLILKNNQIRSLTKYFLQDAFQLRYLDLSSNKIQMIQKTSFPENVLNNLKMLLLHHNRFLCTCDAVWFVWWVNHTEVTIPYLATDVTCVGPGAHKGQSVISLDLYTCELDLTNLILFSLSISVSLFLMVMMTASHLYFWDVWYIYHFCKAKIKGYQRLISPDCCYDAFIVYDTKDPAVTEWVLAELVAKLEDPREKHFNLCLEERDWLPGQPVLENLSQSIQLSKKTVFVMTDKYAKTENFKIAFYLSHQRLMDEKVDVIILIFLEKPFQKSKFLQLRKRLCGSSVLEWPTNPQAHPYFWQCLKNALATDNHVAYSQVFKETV
structure (smiles),measurement,setting,value
"CCC[C@@H](CCO)Nc1nc(N)nc(C)c1Cc1ccc(CN(CC(=O)O)CC(F)(F)F)cc1OC [Example 4, (S)-2-((4-((2-amino-4-(1-hydroxyhexan-3-ylamino)-6-methylpyrimidin-5-yl)methyl)-3-methoxybenzyl)(2,2,2-trifluoroethyl)amino)acetic acid]",IC50,hERG potassium channel,> 10 µM
same,EC50,human TLR7,0.1 µM
same,EC50,human TLR8,> 10 µM
same,Tumour growth inhibition,Renca mouse tumour cells,inhibited tumour growth
same,Survival period (time for tumours to reach 4 times the volume at treatment),CT26 mouse tumour cells,survived significantly longer
